This assay can be described thus: Percentage inhibition of N-methyl-D-aspartic acid (NMDA) receptor produced by oocytes.

As usually defined, the IC50 is the point on the concentration scale where inhibition reaches its midpoint. Low values mean higher potency, high ones lower potency.

Take `CCC(N)[C@@H]1C[C@@]1(C(=O)N(CC)CC)c1ccccc1` (stereo partly drawn) [(1S,2R)-2-(1-Amino-propyl)-1-phenyl-cyclopropanecarboxylic acid diethylamide]: the IC50 was found to be 51 µM.

(Values after BindingDB's records for doi:10.1021/jm960495w (Hokkaido University, 1997).)
